How the values were obtained:
[1] = system: normal primary NK cells, pool 3 (3 donors) (IL-2 2.5 ng/mL); experiment: drug sensitivity score (DSS) (DSS units); higher = more sensitive; extreme values may be limits of the assay; settings: 72 h
KAI3 (IL-2 2.5 ng/mL) [2] = experiment: as above; settings: 72 h
IMC-1 (IL-2 20 ng/mL) [3] = experiment: as above; settings: 72 h
NK-YS (IL-2 2.5 ng/mL) [4] = experiment: as above; settings: 72 h
NK-92 (IL-2 2.5 ng/mL) [5] = experiment: as above; settings: 72 h
KHYG-1 (IL-2 2.5 ng/mL) [6] = experiment: as above; settings: 72 h
SNK-6 (IL-2 2.5 ng/mL) [7] = experiment: as above; settings: 72 h
[8] = system: normal primary NK cells, pool 1 (3 donors), resting (IL-2 0 ng/mL); experiment: as above; settings: 72 h
NKL (IL-2 2.5 ng/mL) [9] = experiment: as above; settings: 72 h
[10] = system: normal primary NK cells, pool 2 (3 donors) (IL-2 2.5 ng/mL); experiment: as above; settings: 72 h
YT (IL-2 2.5 ng/mL) [11] = experiment: as above; settings: 72 h
DERL-7 (IL-2 2.5 ng/mL) [12] = experiment: as above; settings: 72 h
[13] = system: normal primary NK cells, pool 1 (3 donors) (IL-2 2.5 ng/mL); experiment: as above; settings: 72 h
[14] = system: normal primary NK cells, pool 3 (3 donors) (IL-2 2.5 ng/mL); experiment: percent inhibition of viability; higher = more inhibition; settings: 72 h
KAI3 (IL-2 2.5 ng/mL) [15] = experiment: as above; settings: 72 h
IMC-1 (IL-2 20 ng/mL) [16] = experiment: as above; settings: 72 h
NK-YS (IL-2 2.5 ng/mL) [17] = experiment: as above; settings: 72 h
NK-92 (IL-2 2.5 ng/mL) [18] = experiment: as above; settings: 72 h
KHYG-1 (IL-2 2.5 ng/mL) [19] = experiment: as above; settings: 72 h
SNK-6 (IL-2 2.5 ng/mL) [20] = experiment: as above; settings: 72 h
[21] = system: normal primary NK cells, pool 1 (3 donors), resting (IL-2 0 ng/mL); experiment: as above; settings: 72 h
NKL (IL-2 2.5 ng/mL) [22] = experiment: as above; settings: 72 h
[23] = system: normal primary NK cells, pool 2 (3 donors) (IL-2 2.5 ng/mL); experiment: as above; settings: 72 h
YT (IL-2 2.5 ng/mL) [24] = experiment: as above; settings: 72 h
DERL-7 (IL-2 2.5 ng/mL) [25] = experiment: as above; settings: 72 h
[26] = system: normal primary NK cells, pool 1 (3 donors) (IL-2 2.5 ng/mL); experiment: as above; settings: 72 h
[27] = system: normal NK cells expanded with K562-aAPC; experiment: drug sensitivity score (DSS) (DSS units); higher = more sensitive; extreme values may be limits of the assay; settings: 72 h; IL-2 2.5 ng/mL
Experimental: (§1)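 Drug sensitivity and resistance testing on K562-aAPC-expanded normal NK cells: 5 concentrations (10-fold steps over a 10,000-fold range), 72 h at 37 °C, viability by CellTiter-Glo normalised to DMSO and benzethonium chloride controls; DSS from the fitted curve.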

[28] = system: normal NK cells expanded with K562-aAPC; experiment: percent inhibition of viability; higher = more inhibition; settings: 72 h, IL-2 2.5 ng/mL
Experimental: as §1

KAI3 (IL-2 2.5 ng/mL) [29] = experiment: relative IC50 (inflection point of fitted viability curve, relative to fitted max inhibition); higher = less sensitive; settings: 72 h
Experimental: (§2)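 Drug sensitivity and resistance testing: 5 concentrations over a 10,000-fold range, 72 h at 37 °C, viability by CellTiter-Glo normalised to DMSO and benzethonium chloride controls. IC50 is the inflection point of a logistic fit (min fixed at 0, max fitted), so it is relative to the fitted maximal inhibition. Kept only where fitted max inhibition is at least 50%.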

NK-YS (IL-2 2.5 ng/mL) [30] = experiment: as above; settings: 72 h
Experimental: as §2

NK-92 (IL-2 2.5 ng/mL) [31] = experiment: as above; settings: 72 h
Experimental: as §2

SNK-6 (IL-2 2.5 ng/mL) [32] = experiment: as above; settings: 72 h
Experimental: as §2

NKL (IL-2 2.5 ng/mL) [33] = experiment: as above; settings: 72 h
Experimental: as §2

YT (IL-2 2.5 ng/mL) [34] = experiment: as above; settings: 72 h
Experimental: as §2

DERL-7 (IL-2 2.5 ng/mL) [35] = experiment: as above; settings: 72 h
Experimental: as §2

COCC[n+]1c2c(n(Cc3cnccn3)c1C)C(=O)c1ccccc1C2=O [YM155] (max concentration tested 10000 nM)
Settings | drug sensitivity score
DERL-7 (IL-2 2.5 ng/mL) [12] | 36.2
IMC-1 (IL-2 20 ng/mL) [3] | 48.1
KAI3 (IL-2 2.5 ng/mL) [2] | 35.8
KHYG-1 (IL-2 2.5 ng/mL) [6] | 33.8
NK-92 (IL-2 2.5 ng/mL) [5] | 33.2
NK-YS (IL-2 2.5 ng/mL) [4] | 34.2
NKL (IL-2 2.5 ng/mL) [9] | 42.9
SNK-6 (IL-2 2.5 ng/mL) [7] | 29.9
YT (IL-2 2.5 ng/mL) [11] | 37.6
[1] | 8.63
[8] | 19.1
[10] | 12
[13] | 12.9
[27] | 22

percent inhibition of viability [%]
Settings | 1 nM | 10 nM | 100 nM | 1000 nM | 10000 nM
DERL-7 (IL-2 2.5 ng/mL) [25] | 7.39 | 49.9 | 100 | 101 | 100
IMC-1 (IL-2 20 ng/mL) [16] | 65.3 | 99.4 | 100 | 101 | 100
KAI3 (IL-2 2.5 ng/mL) [15] | 8.21 | 49.4 | 93.5 | 106 | 103
KHYG-1 (IL-2 2.5 ng/mL) [19] | 2.01 | 20.5 | 102 | 106 | 102
NK-92 (IL-2 2.5 ng/mL) [18] | -8.35 | 27.6 | 93.5 | 105 | 102
NK-YS (IL-2 2.5 ng/mL) [17] | 0.18 | 29 | 97.7 | 107 | 103
NKL (IL-2 2.5 ng/mL) [22] | 10.2 | 90.5 | 104 | 108 | 102
SNK-6 (IL-2 2.5 ng/mL) [20] | 8.28 | 13.1 | 85.6 | 98.6 | 100
YT (IL-2 2.5 ng/mL) [24] | 5.75 | 59.2 | 102 | 106 | 102
[14] | -2.28 | 1.02 | 6.74 | 31.9 | 86.7
[21] | -2.05 | -12.4 | 35.7 | 79.2 | 98.8
[23] | -1.75 | 4.96 | 15.5 | 50.5 | 97.1
[26] | -4.81 | -8.82 | 20.6 | 54.2 | 100
[28] | -6.82 | 3.02 | 36.7 | 96.8 | 100

FC(F)c1nc2ccccc2n1-c1nc(N2CCOCC2)nc(N2CCOCC2)n1 [ZSTK474]
Settings | relative IC50 [nM]
DERL-7 (IL-2 2.5 ng/mL) [35] | 110
KAI3 (IL-2 2.5 ng/mL) [29] | 290
NK-92 (IL-2 2.5 ng/mL) [31] | 31.2
NK-YS (IL-2 2.5 ng/mL) [30] | 655
NKL (IL-2 2.5 ng/mL) [33] | 436
SNK-6 (IL-2 2.5 ng/mL) [32] | 832
YT (IL-2 2.5 ng/mL) [34] | 262

FC(F)c1nc2ccccc2n1-c1nc(N2CCOCC2)nc(N2CCOCC2)n1 [ZSTK474] (max concentration tested 10000 nM)
Settings | drug sensitivity score
DERL-7 (IL-2 2.5 ng/mL) [12] | 18.4
IMC-1 (IL-2 20 ng/mL) [3] | 0
KAI3 (IL-2 2.5 ng/mL) [2] | 9.53
KHYG-1 (IL-2 2.5 ng/mL) [6] | 4.45
NK-92 (IL-2 2.5 ng/mL) [5] | 16.9
NK-YS (IL-2 2.5 ng/mL) [4] | 7.54
NKL (IL-2 2.5 ng/mL) [9] | 11
SNK-6 (IL-2 2.5 ng/mL) [7] | 7.51
YT (IL-2 2.5 ng/mL) [11] | 9
[1] | 1.91
[8] | 5.69
[10] | 3.84
[13] | 7.96
[27] | 7.86

percent inhibition of viability [%]
Settings | 1 nM | 10 nM | 100 nM | 1000 nM | 10000 nM
DERL-7 (IL-2 2.5 ng/mL) [25] | 6 | 10.9 | 36.5 | 75.4 | 81.7
IMC-1 (IL-2 20 ng/mL) [16] | 0.84 | -3.67 | -9.08 | -31.5 | -20.7
KAI3 (IL-2 2.5 ng/mL) [15] | 4.91 | 1.34 | 14.2 | 43.2 | 55.8
KHYG-1 (IL-2 2.5 ng/mL) [19] | 1.03 | -2.51 | 5.44 | 17.9 | 48
NK-92 (IL-2 2.5 ng/mL) [18] | 1.13 | 13.1 | 45.6 | 48.8 | 57.2
NK-YS (IL-2 2.5 ng/mL) [17] | -6.13 | -3.67 | 5.5 | 36 | 57.2
NKL (IL-2 2.5 ng/mL) [22] | -4.7 | 3.86 | 6.05 | 54.5 | 69.3
SNK-6 (IL-2 2.5 ng/mL) [20] | 17.9 | -3.78 | -1.36 | 35.9 | 58.6
YT (IL-2 2.5 ng/mL) [24] | 3.19 | 3.41 | 11.6 | 42.3 | 50.5
[14] | -3.55 | -8.03 | -3.22 | 10.6 | 22
[21] | -19.3 | -14.1 | 10.2 | 27.2 | 41.5
[23] | -2.66 | -3.09 | 1.26 | 20 | 34.2
[26] | -2.64 | -1.27 | 20.4 | 31.6 | 32.4
[28] | -8.61 | 1.11 | 12.5 | 35.9 | 49.6
